According to patent US5466671A, “Apidaecin-type peptide antibiotics with improved activities and/or different antibacterial spectrum” (priority 1994, dated 1995):
Residues, ends and D or L forms follow the SMILES beside them.

Experiments:
Pseudomonas syringae = experiment: Inhibition zone assay (agar plate); format: cell-based; conditions: for inhibition zone diameter (number of plus signs): agar plate, 50 nanomoles/well, 3 mm wells; for Inhibition zones: in mm diameter: 50 nanomoles per well (3 mm diameter)
Klebsiella pneumoniae = experiment: Inhibition zone assay (agar plate); format: cell-based; conditions: for inhibition zone diameter (number of plus signs): agar plate, 50 nanomoles/well, 3 mm wells; for Inhibition zones: in mm diameter: 50 nanomoles per well (3 mm diameter)
E. coli 25922 = experiment: Minimal inhibitory concentration (liquid culture); conditions: inoculum 1100 CFU/ml; a-b = highest concentration with growth - lowest without growth
E. coli 23802 = experiment: Minimal inhibitory concentration (liquid culture); conditions: inoculum 5000 CFU/ml; a-b = highest concentration with growth - lowest without growth
Salmonella typhimurium = experiment: Inhibition zone assay (agar plate); format: cell-based; conditions: for inhibition zone diameter (number of plus signs): agar plate, 50 nanomoles/well, 3 mm wells; for Inhibition zones: in mm diameter: 50 nanomoles per well (3 mm diameter)
Rhizobium meliloti = experiment: Inhibition zone assay (agar plate); format: cell-based; conditions: 50 nanomoles/well, 3 mm wells
A. calcoaceticus = experiment: Minimal inhibitory concentration (liquid culture); conditions: inoculum 16 × 10^6 CFU/ml; a-b = highest concentration with growth - lowest without growth
[1] = test system: Acinetobacter calcoaceticus; experiment: Inhibition zone assay (agar plate); format: cell-based; conditions: for inhibition zone diameter (number of plus signs): agar plate, 50 nanomoles/well, 3 mm wells; for Inhibition zones: in mm diameter: 50 nanomoles per well (3 mm diameter)
S. typhimurium = experiment: Minimal inhibitory concentration (liquid culture); conditions: inoculum 8 × 10^6 CFU/ml; a-b = highest concentration with growth - lowest without growth
Y. enterocolitica = experiment: Minimal inhibitory concentration (liquid culture); conditions: inoculum 5000 CFU/ml; a-b = highest concentration with growth - lowest without growth
E. coli 11775 = experiment: Minimal inhibitory concentration (liquid culture); conditions: for minimal inhibitory concentration (MIC): a-b = highest concentration with growth - lowest without growth
Erwinia amylovora = experiment: Inhibition zone assay (agar plate); format: cell-based; conditions: for inhibition zone diameter (number of plus signs): agar plate, 50 nanomoles/well, 3 mm wells; for Inhibition zones: in mm diameter: 50 nanomoles per well (3 mm diameter)
Legionella pneumophila = format: cell-based; conditions: agar plate, 50 nanomoles/well, 3 mm wells
Haemophilus influenzae = experiment: Inhibition zone assay (agar plate); format: cell-based; conditions: 50 nanomoles/well, 3 mm wells
E. coli Apid^R = experiment: Minimal inhibitory concentration (liquid culture); format: cell-based; conditions: a-b = highest concentration with growth - lowest without growth
From the text: For details see `Experimental Procedures`.

Yersinia enterocolitica = experiment: Inhibition zone assay (agar plate); format: cell-based; conditions: 50 nanomoles/well, 3 mm wells
M. morganii = experiment: Minimal inhibitory concentration (liquid culture); conditions: inoculum 400 CFU/ml; a-b = highest concentration with growth - lowest without growth
Enterobacter cloacae = experiment: Inhibition zone assay (agar plate); format: cell-based; conditions: for inhibition zone diameter (number of plus signs): agar plate, 50 nanomoles/well, 3 mm wells; for Inhibition zones: in mm diameter: 50 nanomoles per well (3 mm diameter)
[2] = test system: Agrobacterium tumefaciens; experiment: Inhibition zone assay (agar plate); format: cell-based; conditions: for inhibition zone diameter (number of plus signs): agar plate, 50 nanomoles/well, 3 mm wells; for Inhibition zones: in mm diameter: 50 nanomoles per well (3 mm diameter)
[3] = test system: Escherichia coli (ATCC11775); experiment: Inhibition zone assay (agar plate); format: cell-based; conditions: for inhibition zone diameter (number of plus signs): agar plate, 50 nanomoles/well, 3 mm wells; for Inhibition zones: in mm diameter: 50 nanomoles per well (3 mm diameter)
E. coli D22 = format: cell-based; conditions: 50 nanomoles per well (3 mm diameter)
Salmonella typhi = format: cell-based; conditions: 50 nanomoles per well (3 mm diameter)
Morganella morganii = experiment: Inhibition zone assay (agar plate); format: cell-based; conditions: 50 nanomoles/well, 3 mm wells
Shigella dysenteriae = format: cell-based; conditions: 50 nanomoles per well (3 mm diameter)

## CC[C@H](C)[C@H](NC(=O)[C@H](Cc1ccc(O)cc1)NC(=O)[C@@H](NC(=O)[C@@H]1CCCN1C(=O)[C@H](CCCNC(=N)N)NC(=O)[C@@H](N)CC(N)=O)C(C)C)C(=O)N1CCC[C@H]1C(=O)N1CCC[C@H]1C(=O)N1CCC[C@H]1C(=O)N[C@@H](CCCNC(=N)N)C(=O)N1CCC[C@H]1C(=O)N1CCC[C@H]1C(=O)N[C@@H](Cc1c[nH]cn1)C(=O)N1CCC[C@H]1C(=O)N[C@@H](CCCNC(=N)N)C(=O)N[C@@H](CC(C)C)C(=O)O [Bb-A] (H-NRPVYIPPPRPPHPRL-OH)
Pseudomonas syringae
  inhibition zone diameter (number of plus signs): ++++ ((++++) 15-19 mm)
Klebsiella pneumoniae
  inhibition zone diameter (number of plus signs): ++ ((++) 7-9 mm)
E. coli 25922
  minimal inhibitory concentration (MIC): 1 to 5 µg/mL
E. coli 23802
  minimal inhibitory concentration (MIC): 10 to 20 µg/mL
Salmonella typhimurium
  inhibition zone diameter (number of plus signs): +++ ((+++) 10-14 mm)
Rhizobium meliloti
  inhibition zone diameter (number of plus signs): +++++ ((+++++) 20 or more min)
A. calcoaceticus
  minimal inhibitory concentration (MIC): > 20 µg/mL
[1]
  inhibition zone diameter (number of plus signs): ++ ((++) 7-9 mm)
S. typhimurium
  minimal inhibitory concentration (MIC): 0.5 to 1 µg/mL
Y. enterocolitica
  minimal inhibitory concentration (MIC): 1 to 5 µg/mL
E. coli 11775; inoculum 16 × 10^6 CFU/ml
  minimal inhibitory concentration (MIC): 1 to 5 µg/mL
E. coli 11775; inoculum 1200 CFU/ml
  minimal inhibitory concentration (MIC): 0.1 to 0.5 µg/mL
Erwinia amylovora
  inhibition zone diameter (number of plus signs): ++++ ((++++) 15-19 mm)
Legionella pneumophila
  inhibition zone diameter (number of plus signs): + ((+) 5-6 mm)
Haemophilus influenzae
  inhibition zone diameter (number of plus signs): ++ ((++) 7-9 mm)
E. coli Apid^R; inoculum 12 × 10^6 CFU/ml
  minimal inhibitory concentration (MIC): > 40 µg/mL
E. coli Apid^R; inoculum 1000 CFU/ml
  minimal inhibitory concentration (MIC): > 40 µg/mL
Yersinia enterocolitica
  inhibition zone diameter (number of plus signs): +++ ((+++) 10-14 mm)
M. morganii
  minimal inhibitory concentration (MIC): > 40 µg/mL
Enterobacter cloacae
  inhibition zone diameter (number of plus signs): +++ ((+++) 10-14 mm)
[2]
  inhibition zone diameter (number of plus signs): ++++ ((++++) 15-19 mm)
[3]
  inhibition zone diameter (number of plus signs): ++++ ((++++) 15-19 mm)

## CC(C)C[C@H](NC(=O)[C@H](CCCNC(=N)N)NC(=O)[C@@H]1CCCN1C(=O)[C@H](Cc1c[nH]cn1)NC(=O)[C@@H]1CCCN1C(=O)[C@@H]1CCCN1C(=O)[C@H](CCCNC(=N)N)NC(=O)[C@@H]1CCCN1C(=O)[C@@H]1CCCN1C(=O)[C@@H](NC(=O)[C@H](CCC(N)=O)NC(=O)[C@H](CCC(N)=O)NC(=O)[C@@H]1CCCN1C(=O)[C@H](CCCNC(=N)N)NC(=O)[C@@H]1CCCN1C(=O)[C@H](CCCCN)NC(=O)CN)C(C)C)C(=O)O [Ho +, G K P R P Q Q V P P R P P H P R L] (H-GKPRPQQVPPRPPHPRL-OH)
Pseudomonas syringae
  Inhibition zones: in mm diameter: 13 mm
  inhibition zone diameter (number of plus signs): +++ ((+++) 10-14 mm)
Klebsiella pneumoniae
  Inhibition zones: in mm diameter: 15 mm
  inhibition zone diameter (number of plus signs): +++ ((+++) 10-14 mm)
E. coli 25922
  minimal inhibitory concentration (MIC): 0.1 to 0.5 µg/mL
E. coli 23802
  minimal inhibitory concentration (MIC): 0.5 to 1 µg/mL
Salmonella typhimurium
  Inhibition zones: in mm diameter: 14 mm
  inhibition zone diameter (number of plus signs): +++ ((+++) 10-14 mm)
Rhizobium meliloti
  inhibition zone diameter (number of plus signs): ++++ ((++++) 15-19 mm)
A. calcoaceticus
  minimal inhibitory concentration (MIC): 2 to 10 µg/mL
[1]
  Inhibition zones: in mm diameter: 5 mm
  inhibition zone diameter (number of plus signs): + ((+) 5-6 mm)
S. typhimurium
  minimal inhibitory concentration (MIC): 0.5 to 1 µg/mL
Y. enterocolitica
  minimal inhibitory concentration (MIC): 1 to 5 µg/mL
E. coli 11775; inoculum 16 × 10^6 CFU/ml
  minimal inhibitory concentration (MIC): 0.1 to 0.5 µg/mL
E. coli 11775; inoculum 1200 CFU/ml
  minimal inhibitory concentration (MIC): 0.1 to 0.5 µg/mL
E. coli 11775; inoculum sizes differing by four orders of magnitude
  inoculum effect on inhibition of viability: equally well
E. coli D22
  Inhibition zones: in mm diameter: 14 mm
Erwinia amylovora
  Inhibition zones: in mm diameter: 12 mm
  inhibition zone diameter (number of plus signs): +++ ((+++) 10-14 mm)
Salmonella typhi
  Inhibition zones: in mm diameter: 20 mm
Haemophilus influenzae
  inhibition zone diameter (number of plus signs): +++ ((+++) 10-14 mm)
E. coli Apid^R; inoculum 1000 CFU/ml
  minimal inhibitory concentration (MIC): 1 to 5 µg/mL
Yersinia enterocolitica
  inhibition zone diameter (number of plus signs): ++++ ((++++) 15-19 mm)
M. morganii
  minimal inhibitory concentration (MIC): 1 to 5 µg/mL
Enterobacter cloacae
  Inhibition zones: in mm diameter: 15 mm
  inhibition zone diameter (number of plus signs): +++ ((+++) 10-14 mm)
Morganella morganii
  inhibition zone diameter (number of plus signs): ++ ((++) 7-9 mm)
Shigella dysenteriae
  Inhibition zones: in mm diameter: 18 mm
[2]
  Inhibition zones: in mm diameter: 12 mm
  inhibition zone diameter (number of plus signs): ++ ((++) 7-9 mm)
[3]
  Inhibition zones: in mm diameter: 15 mm
  inhibition zone diameter (number of plus signs): +++ ((+++) 10-14 mm)

## CC[C@H](C)[C@H](NC(=O)[C@@H]1CCCN1C(=O)[C@@H](NC(=O)[C@H](CCC(N)=O)NC(=O)[C@@H]1CCCN1C(=O)[C@H](CO)NC(=O)[C@@H]1CCCN1C(=O)[C@H](CCCNC(=N)N)NC(=O)[C@@H](N)CO)C(C)C)C(=O)N[C@@H](CCCNC(=N)N)C(=O)N1CCC[C@H]1C(=O)N[C@@H](CO)C(=O)N[C@@H](CCC(N)=O)C(=O)N1CCC[C@H]1C(=O)N[C@@H](CCCNC(=N)N)C(=O)N1CCC[C@H]1C(=O)N[C@@H](CCC(N)=O)C(=O)N1CCC[C@H]1C(=O)NCC(=O)N[C@@H](CCCCN)C(=O)N1CCC[C@H]1C(=O)N[C@@H](CCCNC(=N)N)C(=O)N1CCC[C@H]1C(=O)N[C@@H](CCC(N)=O)C(=O)N[C@@H](CCC(N)=O)C(=O)N[C@H](C(=O)N1CCC[C@H]1C(=O)N1CCC[C@H]1C(=O)N[C@@H](CCCNC(=N)N)C(=O)N[C@H](C(=O)N1CCC[C@H]1C(=O)N[C@@H](Cc1c[nH]cn1)C(=O)N1CCC[C@H]1C(=O)N[C@@H](CCCNC(=N)N)C(=O)N[C@@H](CC(C)C)C(=O)O)[C@@H](C)O)C(C)C [PAB-GT, SRPSPQVPIRPSQPRPQPGKPRPQQVPPRTPHPRL] (H-SRPSPQVPIRPSQPRPQPGKPRPQQVPPRTPHPRL-OH)
Pseudomonas syringae
  Inhibition zones: in mm diameter: 5 mm
Klebsiella pneumoniae
  Inhibition zones: in mm diameter: 8 mm
Salmonella typhimurium
  Inhibition zones: in mm diameter: 6 mm
[1]
  Inhibition zones: in mm diameter: 8 mm
E. coli D22
  Inhibition zones: in mm diameter: 13 mm
Erwinia amylovora
  Inhibition zones: in mm diameter: 6 mm
Salmonella typhi
  Inhibition zones: in mm diameter: 12 mm
Enterobacter cloacae
  Inhibition zones: in mm diameter: 9 mm
Shigella dysenteriae
  Inhibition zones: in mm diameter: 10 mm
[2]
  Inhibition zones: in mm diameter: 5 mm
[3]
  Inhibition zones: in mm diameter: 8 mm
